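Test compounds were applied to cells in 96-well plates for 48 hours at 5 doses. GI50 = concentration required for 50% inhibition of growth. TGI is the concentration that stops growth completely.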
What was measured:
Experiment in all cases: inhibition of tumour cell growth, NCI panel, 48 h
[1] = system: SK-MEL-28 melanoma
[2] = system: OVCAR-5 ovarian
[3] = system: HOP-62 NSCLC
[4] = system: M14 melanoma
[5] = system: NCI-H522 lung
[6] = system: RXF 393 renal
[7] = system: DU-145 prostate
[8] = system: KM12 colon
[9] = system: SK-MEL-2 melanoma
[10] = system: NCI-H23 lung

| Structure (SMILES) | TGI [1] | TGI [2] | TGI [3] | TGI [4] | TGI [5] | TGI [6] | TGI [7] | TGI [8] | TGI [9] | TGI [10] | GI50 [1] | GI50 [2] | GI50 [3] | GI50 [4] | GI50 [5] | GI50 [6] | GI50 [7] | GI50 [8] | GI50 [9] | GI50 [10] |
| --- | --- | --- | --- | --- | --- | --- | --- | --- | --- | --- | --- | --- | --- | --- | --- | --- | --- | --- | --- | --- |
| CC1CCC/C1=C(/I)C(=O)c1ccccc1 (stereo unspecified) | > 100000 nM | > 100000 nM | > 100000 nM | > 100000 nM | > 100000 nM | > 100000 nM | > 100000 nM | > 100000 nM | > 100000 nM | > 100000 nM | – | – | – | – | – | – | – | – | – | – |
| O=C1OCC2=C1C(c1cccc(Cl)c1)c1cc3c(cc1N2CCO)OCCO3 (stereo unspecified) | > 100000 nM | > 100000 nM | 40500 nM | 1570 nM | 60.8 nM | 174 nM | 1310 nM | 1720 nM | 607 nM | > 57200 nM | 83.9 nM | 539 nM | 78.7 nM | 49.3 nM | 20.4 nM | 29.4 nM | 152 nM | 43.1 nM | 33.5 nM | 97 nM |
| CC(=O)NCCC1CN(C(=O)/C=C/I)c2ccccc21 (stereo unspecified) | 18200 nM | 29300 nM | 27700 nM | 8500 nM | 2830 nM | 10800 nM | 29200 nM | 2670 nM | 14800 nM | 25600 nM | – | – | – | – | – | – | – | – | – | – |
| COc1ccc2c(c1)c(CC(=O)[Se]C)c(C)n2C(=O)c1ccc(Cl)cc1 | > 588 nM | > 1000 nM | > 615 nM | > 340 nM | > 677 nM | > 500 nM | > 807 nM | > 1000 nM | > 794 nM | > 894 nM | > 202 nM | > 424 nM | > 306 nM | – | > 371 nM | > 206 nM | > 423 nM | > 577 nM | > 436 nM | > 376 nM |
| O=C1c2cc3c(cc2[C@@H]2[C@H]1c1ccc([N+](=O)[O-])cc1C(=O)N2CCCBr)OCO3 | > 100000 nM | – | < 48.6 nM | 318 nM | – | < 10 nM | – | 3950 nM | > 100000 nM | 77.5 nM | < 10 nM | < 15.8 nM | < 10 nM | < 10 nM | < 26.6 nM | < 10 nM | < 10 nM | 43.7 nM | 2150 nM | < 10 nM |
| C/C(=N/NC(=S)N1CCCCC1)c1ccccc1O | > 31600 nM | > 31600 nM | > 100000 nM | > 31600 nM | > 31600 nM | > 31600 nM | > 31600 nM | > 31600 nM | > 31600 nM | > 31600 nM | – | – | – | – | – | – | – | – | – | – |
| NCCCC[C@@H]1NC(=O)[C@H]2CCCN2C(=O)[C@H](Cc2ccccc2)CNC(=O)[C@H](Cc2ccccc2)NC1=O | > 37500 nM | > 37500 nM | > 37500 nM | > 37500 nM | > 37500 nM | > 37500 nM | > 37500 nM | > 37500 nM | > 37500 nM | > 37500 nM | > 37500 nM | > 37500 nM | > 37500 nM | > 37500 nM | > 37500 nM | > 37500 nM | > 37500 nM | > 37500 nM | > 37500 nM | > 37500 nM |

Source: PubChem BioAssay (NCI)
